The target in the experiment is T1, recombinant human PARP (PARP1) (Homo sapiens, UniProt P09874).
T1 construct: Full length human PARP (PARP1) is assembled from PCR fragments; His6 tag with TEV site, from the pFastBac-HTb vector (own knowledge of the vector); made in house; host or cells: insect cells, baculovirus (Bac-to-Bac, Gibco-BRL)
In words: PARP enzyme assay, Method A (radioactivity or 'ELISA' enzyme assay with partially purified enzyme). Format: biochemical. The following applies: recombinant human PARP preparation, radioactive or ELISA enzyme assay. From the text:
Two different methods are employed in determining the activity of the compounds of this invention in inhibiting the activity of PARP enzyme, designated as Method A and Method B respectively as set forth below.
Method A: Cloning and Expression, and Partial Purification of Recombinant Human PARP:
Full length human PARP (PARP1) is assembled from PCR fragments of a clone from a human brain cDNA library and two Incyte clones. The PARP gene (3046 bp) is sub-cloned into pFastBac-HTb vector to give PARP-pFastBac-HTb and the sequence of this clone is verified. PARP-pFastBac-HTb is expressed to obtain protein using the Bac-to-Bac expression protocol from Gibco-BRL. The recombinant virus generated is used to scale up the material for purification.
Cell pellets from cell broth of cells expressing PARP are treated with a cocktail of protease inhibitors and lysed by 4 freeze-thaw cycles. The material is suspended in 10 mM HEPES/0.1M NaCl/pH 7.2, stirred, and then centrifuged. A 40%-70% ammonium sulfate cut of protein pellet is obtained from the supernatant. The pellet is solubilized in 10 mM HEPES/pH 7.2 and centrifuged. The supernatant buffer is exchanged to 10 mM HEPES/pH 7.2/0.1M NaCl/25% glycerol by dialysis or with a desalting column. The enzyme preparation is stored at −20° C. until use.
The compounds of this invention are then tested with this enzyme preparation using either the radioactive enzyme assay or by the “ELISA” enzyme assay as set forth below.
Radioactivity Enzyme Assay:
Incorporation of radioactivity from labeled NAD into acid-precipitated protein is measured. The reaction mixture (volume 100 μL or 50 μL, in a test-tube or 96-well plate) contained 100 μg/mL calf thymus DNA (sonicated), 100 μg/mL histones, 100 mM Tris (pH 8.0), 1.0 mM DTT, 10 mM MgCl2, NAD (200 μM, 0.65 microcurie/mL), and varying amounts of enzyme. The reaction was incubated for 10 min at 37° C. or at room temperature for 60 min. The reaction was stopped and protein precipitated by addition of ice-cold trichloroacetic acid (TCA; 10% or 20% aqueous w/v). After brief storage in ice or at 4° C. for 2 hrs, the reaction mixture is filtered under vacuum through a glass fiber filter (2.5 cm disc, or 96-well filter plate). After washing with TCA and ethanol, the filter is dried and counted for tritium CPM after addition of scintillation fluid.
Incorporation of biotin-NAD into histone coated on plate is measured. A 96-well protein-binding EIA plate is coated with histone and blocked with bovine serum albumin. The reaction mixture (50 μL) contained DNA, buffer, enzyme, (test compound), and 250 μM of NAD and 5 μL of biotin-NAD (Trevigen). After reaction at room temperature the wells are washed and treated with Extravidin (Sigma). After incubation and washing color is developed with the peroxidase substrate TMB (Sigma). The TMB reaction is quenched with 2M sulfuric acid and the absorbance at 450 nm is read.

Each structure is given as a SMILES string. Where a name gives a salt, the structure may show the parent alone.

T1 sequence (P09874 whole entry, the tested form may be a part): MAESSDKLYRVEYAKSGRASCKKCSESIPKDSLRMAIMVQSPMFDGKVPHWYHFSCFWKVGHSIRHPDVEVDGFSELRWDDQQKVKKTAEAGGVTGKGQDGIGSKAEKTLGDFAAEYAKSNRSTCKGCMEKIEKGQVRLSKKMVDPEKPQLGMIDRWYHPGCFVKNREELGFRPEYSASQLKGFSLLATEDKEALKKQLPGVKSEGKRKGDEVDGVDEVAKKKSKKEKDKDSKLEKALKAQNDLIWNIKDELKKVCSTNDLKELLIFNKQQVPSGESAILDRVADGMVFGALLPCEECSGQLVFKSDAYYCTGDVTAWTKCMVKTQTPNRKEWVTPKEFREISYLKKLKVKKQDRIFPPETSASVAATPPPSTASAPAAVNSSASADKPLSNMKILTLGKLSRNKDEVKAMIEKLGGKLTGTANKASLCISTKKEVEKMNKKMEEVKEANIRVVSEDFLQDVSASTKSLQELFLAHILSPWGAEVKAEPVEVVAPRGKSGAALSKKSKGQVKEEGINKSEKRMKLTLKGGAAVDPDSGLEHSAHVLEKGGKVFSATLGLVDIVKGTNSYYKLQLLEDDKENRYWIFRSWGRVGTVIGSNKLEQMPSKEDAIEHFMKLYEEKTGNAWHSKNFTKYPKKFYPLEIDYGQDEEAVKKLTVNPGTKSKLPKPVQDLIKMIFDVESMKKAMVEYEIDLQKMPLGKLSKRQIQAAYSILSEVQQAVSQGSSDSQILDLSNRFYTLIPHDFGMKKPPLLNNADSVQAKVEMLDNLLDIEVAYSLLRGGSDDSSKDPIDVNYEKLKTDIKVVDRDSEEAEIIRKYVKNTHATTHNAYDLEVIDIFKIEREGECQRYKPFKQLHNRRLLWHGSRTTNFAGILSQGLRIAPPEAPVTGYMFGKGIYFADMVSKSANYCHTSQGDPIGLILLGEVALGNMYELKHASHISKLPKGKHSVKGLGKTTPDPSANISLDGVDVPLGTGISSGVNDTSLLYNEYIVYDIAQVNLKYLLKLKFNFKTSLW

By IC50 is commonly meant the point on the concentration scale where inhibition reaches its midpoint. `CCc1cc(-c2ccc(S(=O)(=O)NCc3nccn3C)s2)c(C)[nH]c1=O` [Example 80, 5-[5-Ethyl-2-methyl-6-oxo-1,6-dihydropyridin-3-yl]thiophene-2-sulfonic acid (1-methylimidazol-2-yl)methyl]amide hydrochloride]: the IC50 is 0.43 µM. With `CCc1cc(-c2ccc(S(=O)(=O)N(C)C3CCN(C)C3)s2)c(C)[nH]c1=O` (centres unmarked) [Example 81, 5-[5-Ethyl-2-methyl-6-oxo-1,6-dihydropyridin-3-yl]thiophene-2-sulfonic acid methyl (1-methylpyrrolidin-3-yl)amide hydrochloride] the figure was 0.54 µM; with `CCc1cc(-c2ccc(S(=O)(=O)NC3CCN(Cc4ccncc4)CC3)s2)c(C)[nH]c1=O` [Example 82, 5-[5-Ethyl-2-methyl-6-oxo-1,6-dihydropyridin-3-yl]thiophene-2-sulfonic acid [1-(pyridin-4-yl)methyl(piperidin-4-yl)]amide dihydrochloride], 0.48 µM; with `CCc1cc(-c2ccc(S(=O)(=O)NC3CCN(Cc4ncc[nH]4)CC3)s2)c(C)[nH]c1=O` [Example 83, 5-[5-Ethyl-2-methyl-6-oxo-1,6-dihydropyridin-3-yl]thiophene-2-sulfonic acid (1-imidazol-2-yl)methyl(piperidin-4-yl)]amide dihydrochloride], 2.8 µM. To `CCc1cc(-c2ccc(S(=O)(=O)NCCCCc3cccnc3)s2)c(C)[nH]c1=O` [Example 84, 5-[5-Ethyl-2-methyl-6-oxo-1,6-dihydropyridin-3-yl]thiophene-2-sulfonic acid 4-(pyridin-3-ylbutyl)]amide hydrochloride] belongs 1.6 µM. To `CCc1cc(-c2ccc(S(=O)(=O)N3CCOCC3)s2)c(C)[nH]c1=O` [Example 86, 3-Ethyl-6-methyl-5-[5-(morpholine-4-sulfonyl)thiophen-2-yl]-1H-pyridin-2-one] belongs 4.5 µM. Turning to `CCc1cc(-c2ccc(S(=O)(=O)N3CCC(O)CC3)s2)c(C)[nH]c1=O` [Example 87, 3-Ethyl-5-[5-(4-hydroxypiperidine-1-sulfonyl)thiophen-2-yl]-6-methyl-1H-pyridin-2-one], the IC50 worked out at 5.3 µM. Consider `CCOC(=O)N1CCN(S(=O)(=O)c2ccc(-c3cc(CC)c(=O)[nH]c3C)s2)CC1` [Example 89, 4-[5-(5-Ethyl-2-methyl-6-oxo-1,6-dihydropyridin-3-yl)thiophene-2-sulfonyl]piperazine-1-carboxylic acid ethyl ester], for which the IC50 worked out at 10.8 µM. With `CCc1cc(-c2ccc(S(=O)(=O)N3CCCC(CO)C3)s2)c(C)[nH]c1=O` (centres unmarked) [Example 90, 3-Ethyl-5-[5-(3-hydroxymethylpiperidine-1-sulfonyl)thiophen-2-yl]-6-methyl-1H-pyridin-2-one] the figure was 0.68 µM; with `CCc1cc(-c2ccc(S(=O)(=O)N3CCN(CCO)CC3)s2)c(C)[nH]c1=O` [Example 91, 3-Ethyl-5-{5-[4-(2-hydroxyethyl)piperazine-1-sulfonyl]thiophen-2-yl}-6-methyl-1H-pyridin-2-one hydrochloride], 2.9 µM; with `CCc1cc(-c2ccc(S(=O)(=O)N3CCN(C)CC3)s2)c(C)[nH]c1=O` [Example 92, 3-Ethyl-6-methyl-5-[5-(4-methylpiperazine-1-sulfonyl)thiophen-2-yl]-1H-pyridin-2-one], 1.3 µM. With `CCc1cc(-c2ccc(S(=O)(=O)N3CCNCC3)s2)c(C)[nH]c1=O` [Example 94, 3-Ethyl-6-methyl-5-[5-(piperazine-1-sulfonyl)thiophen-2-yl]-1H-pyridin-2-one hydrochloride] the figure was 1.4 µM; with `CCc1cc(-c2ccc(S(=O)(=O)NCCCN(CC)CC)s2)c(C)[nH]c1=O` [Example 96, 5-(5-Ethyl-2-methyl-6-oxo-1,6-dihydropyridin-3-yl)-thiophene-2-sulfonic acid (3-diethylaminopropyl)amide hydrochloride], 0.72 µM.

Consider `CCc1cc(-c2ccc(S(=O)(=O)NCc3ccco3)s2)c(C)[nH]c1=O` [Example 97, 5-(5-Ethyl-2-methyl-6-oxo-1,6-dihydropyridin-3-yl)-thiophene-2-sulfonic acid (furan-2-ylmethyl)amide], for which the IC50 worked out at 0.18 µM. To `CCc1cc(-c2ccc(S(=O)(=O)NCCOc3ccccc3)s2)c(C)[nH]c1=O` [Example 98, 5-(5-Ethyl-2-methyl-6-oxo-1,6-dihydropyridin-3-yl)-thiophene-2-sulfonic acid (2-phenoxyethyl)amide] belongs 0.41 µM.

In the case of `CCc1cc(-c2ccc(S(=O)(=O)N3CCN(CCOCCO)CC3)s2)c(C)[nH]c1=O` [Example 99, 3-Ethyl-5-(5-{4-[2-(2-hydroxy-ethoxy)-ethyl]-piperazine-1-sulfonyl}-thiophen-2-yl)-6-methyl-1H-pyridin-2-one hydrochloride], the IC50 is 1.3 µM. Regarding `CCc1cc(-c2ccc(S(=O)(=O)N3CCN(Cc4ccccc4)CC3)s2)c(C)[nH]c1=O` [Example 100, 5-[5-(4-Benzylpiperazine-1-sulfonyl)thiophen-2-yl]-3-ethyl-6-methyl-1H-pyridin-2-one hydrochloride], the IC50 stood at 2.2 µM.

`CCc1cc(-c2ccc(S(=O)(=O)NCC3CCCN3CC)s2)c(C)[nH]c1=O` (centres unmarked) [Example 102, 5-(5-Ethyl-2-methyl-6-oxo-1,6-dihydropyridin-3-yl)-thiophene-2-sulfonic acid (1-ethyl-pyrrolidin-2-ylmethyl)amide hydrochloride]: the half-maximal inhibitory concentration (IC50) is 0.49 µM.

For the compound `CCc1cc(-c2ccc(S(=O)(=O)NCc3ccc4c(c3)OCO4)s2)c(C)[nH]c1=O` [Example 103, 5-(5-Ethyl-2-methyl-6-oxo-1,6-dihydropyridin-3-yl)-thiophene-2-sulfonic acid (1,3-benzodioxol-5-ylmethyl)amide], the IC50 amounted to 0.14 µM. For the compound `CCc1cc(-c2ccc(S(=O)(=O)N3CCN(Cc4ccc5c(c4)OCO5)CC3)s2)c(C)[nH]c1=O` [Example 104, 5-[5-(4-1,3-Benzodioxol-5-ylmethylpiperazine-1-sulfonyl)-thiophen-2-yl]-3-ethyl-6-methyl-1H-pyridin-2-one hydrochloride], the IC50 amounted to 2.5 µM.

As for `CCc1cc(-c2ccc(S(=O)(=O)N3CCC[C@H]3CNc3ccccc3)s2)c(C)[nH]c1=O` [Example 105, 3-Ethyl-6-methyl-5-[5-((S)-2-phenylaminomethylpyrrolidine-1-sulfonyl)-thiophen-2-yl]-1H-pyridin-2-one hydrochloride], the IC50 is 3.1 µM. With `CCc1cc(-c2ccc(S(=O)(=O)N(C)Cc3ccco3)s2)c(C)[nH]c1=O` [Example 106, 5-(5-Ethyl-2-methyl-6-oxo-1,6-dihydro-pyridin-3-yl)thiophene-2-sulfonic acid furan-2-yl-methyl-methylamide] the figure was 0.43 µM.

Consider `CCc1cc(-c2ccc(S(=O)(=O)N3CCC(C(=O)c4ccccc4)CC3)s2)c(C)[nH]c1=O` [Example 108, 5-[5-(4-Benzoylpiperidine-1-sulfonyl)thiophen-2-yl]-3-ethyl-6-methyl-1H-pyridin-2-one], for which the IC50 turned out to be 1 µM. Turning to `CCc1cc(-c2ccc(S(N)(=O)=O)s2)c(C)[nH]c1=O` [Example 111, 5-(5-ethyl-2-methyl-6-oxo-1,6-dihydro-pyridin-3-yl)-thiophene-2-sulfonic acid amide], the half-maximal inhibitory concentration (IC50) is 0.21 µM. With `CCc1cc(-c2ccc(S(=O)(=O)NCC3CCCO3)s2)c(C)[nH]c1=O` (centres unmarked) [Example 112, 5-(5-Ethyl-2-methyl-6-oxo-1,6-dihydropyridin-3-yl)thiophene-2-sulfonic acid (tetrahydrofuran-2-ylmethyl)amide] the figure was 1.2 µM; with `CCc1cc(-c2ccc(S(=O)(=O)NCC(C)O)s2)c(C)[nH]c1=O` (centres unmarked) [Example 113, 5-(5-Ethyl-2-methyl-6-oxo-1,6-dihydropyridin-3-yl)thiophene-2-sulfonic acid (2-hydroxypropyl)amide], 0.9 µM.

These data come from patent US8173682B2, “Substituted pyridones as inhibitors of poly(ADP-ribose) polymerase (PARP)” (Aventis Pharmaceuticals Inc., priority 2004, dated 2012).
